Measured values from US7132417B2, “2-phenyl-1-[4-(2-aminoethoxy)-benzyl]-indoles as estrogenic agents” (Wyeth, priority 1996, dated 2006).

What was measured:
[1] = tested on: Ishikawa cells; assay: Ishikawa cell alkaline phosphatase assay; assay type: cell-based, human; conditions: for EC50: reference standards, read-out: ED50 values (95% C.I.), estrogenic activity by the alkaline phosphatase method; for % Activation: compound alone, percent of response related to 1 nM 17β-estradiol; for % Activation with 1 nM 17β-estradiol: compound + 1 nM 17β-estradiol (antiestrogen test)
Protocol: Cells were treated for 48 h prior to assay. […] Sample population for at each dose was n=8. […] Plates are placed at -80° C. for a minimum of 15 minutes. Plates are thawed at 37° C. followed by the addition of 150 μL of 0.1 M Tris-HCl, pH 9.8, containing 4 mM para-nitrophenylphosphate (pNPP) to each well (final concentration, 3 mM pNPP). Absorbance and slope calculations were made using the […] Application program (Bio-Tek Instruments, Inc., Winooski, Vt.). […] The four listed in the following were used as reference standards: A description of these methods is described by Holinka, […]., Kuramoto, H. and Gurpide, E. (1986) Effects of steroid hormones and antisteroids on alkaline phosphatase activity in human endometrial cancer cells (Ishikawa Line). Cancer Research, 46:2771-2774, and by […]. and […] simple and sensitive microtiter plate estrogen bioassay based on stimulation alkaline phosphatase in Ishikawa cells; […] Endocrinology, 6:2757-2762.

[2] = tested on: Female Sprague Dawley CD rats, ovx; assay: 6-week ovariectomized rat model; assay type: in vivo; conditions: 2 μg/rat, s.c., following 6 weeks of treatment, mean ± SEM
Description: Method No. 20 6-Week Ovariectomized Rat Model
Female Sprague Dawley CD rats, ovx or sham ovx, were obtained 1 day after surgery from Taconic Farm (weight range 240–275 g). They were housed 3 or 4 rats/cage in a room on a 14/10 (light/dark) schedule and provided with food (Purina 500 rat chow) and water ad libitum. Treatment for all studies began 1 day after the animals arrival and dosed 5 or 7 days per week as indicated for 6 weeks. A group of age matched sham operated rats not receiving any treatment served as an intact, estrogen replete control group for each study. All treatments were prepared in 1% tween 80 in normal saline at defined concentrations so that the treatment volume was 0.1 mL/100 g body weight. 17-beta estradiol was dissolved in corn oil (20 uG/mL) and delivered subcutaneously, 0.1 mL/rat. All dosages were adjusted at three week intervals according to group mean body weight measurements.
Five weeks after the initiation of treatment and one week prior to the termination of the study, each rat was evaluated for bone mineral density (BMD). The BMD's of the proximal tibiae (PT) and fourth lumbar vertabrae (L4) were measured in anesthetized rats using a dual energy X-ray absorptiometer (Eclipse XR-26, Norland Corp. Ft. Atkins, Wis.). […] Total cholesterol is determined using a Boehringer-Mannheim Hitachi 911 clinical analyzer using the Cholesterol/HP kit. […]

[3] = molecular target: T1, estrogen receptor (Homo sapiens, UniProt P03372); assay: In vitro estrogen receptor binding assay ([3H]-17β-estradiol competition); design: expressed in transfected cells; host or cells: CHO cells (100,000 g cytosol); conditions: read-out: Receptor Binding IC50's
T1 sequence (P03372 1-595): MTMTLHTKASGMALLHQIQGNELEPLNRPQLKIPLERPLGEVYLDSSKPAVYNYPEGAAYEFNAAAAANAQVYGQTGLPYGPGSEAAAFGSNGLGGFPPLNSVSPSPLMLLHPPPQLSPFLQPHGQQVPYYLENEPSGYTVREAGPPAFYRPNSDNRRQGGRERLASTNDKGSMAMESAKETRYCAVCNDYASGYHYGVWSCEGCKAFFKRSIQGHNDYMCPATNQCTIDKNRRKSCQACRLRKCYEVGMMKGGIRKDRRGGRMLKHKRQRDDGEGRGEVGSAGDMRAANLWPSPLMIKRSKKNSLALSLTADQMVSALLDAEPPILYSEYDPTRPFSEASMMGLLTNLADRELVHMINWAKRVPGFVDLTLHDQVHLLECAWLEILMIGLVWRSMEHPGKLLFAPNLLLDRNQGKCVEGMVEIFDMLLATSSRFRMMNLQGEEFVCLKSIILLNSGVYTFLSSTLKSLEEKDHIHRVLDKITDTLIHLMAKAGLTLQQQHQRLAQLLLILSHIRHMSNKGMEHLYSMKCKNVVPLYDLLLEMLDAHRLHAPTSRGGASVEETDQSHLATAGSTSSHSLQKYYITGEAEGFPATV
Protocol: In Vitro Estrogen Receptor Binding Assay
CHO cells overexpressing the estrogen receptor were grown in 150 mm^2 dishes in DMEM+10% dextran coated charcoal, stripped fetal bovine serum. The plates were washed twice with PBS and once with 10 mM Tris-HCl, pH 7.4, 1 mM EDTA. Cells were harvested by scraping the surface and then the cell suspension was placed on ice. Cells were disrupted with a hand-held motorized tissue grinder using two, 10-second bursts. […] The cytosol was then frozen and stored at −80° C. Protein concentration of the cytosol was estimated using the BCA assay with reference standard protein.
100 uG/100 uL of the receptor preparation was aliquoted per well. […] The plate was incubated at room temperature for 2.5 h. […] 200 uL of the supernatant solution was then removed for scintillation counting. Samples were counted to 2% or 10 minutes, whichever occurs first. […] Also, wells containing radioactivity but no cytosol were processed with charcoal to estimate unremovable DPM of [^3H]
Counts per minute (CPM) of radioactivity were automatically converted to disintegrated per minute (DPM) by the Beckman LS 7500 Scintillation Counter using a set of quenched standards to generate a H No. for each sample.
For the generation of IC50 curves, % binding is plotted vs compound. […] For a description of these methods, see Hulme, E. C., ed. […] Receptor-Ligand Interactions: A Practical Approach. IRL Press, New York. (see especially chapter 8).

[4] = tested on: Immature Sprague-Dawley rats; assay: Rat uterotrophic/antiuterotrophic bioassay; assay type: in vivo; conditions: daily ip; for Uterine wt mg 100 uG cmpd + 1 uG 17β-estradiol: 100 uG compound + 1 uG 17β-estradiol; for Uterine wt mg 100 uG cmpd: 100 uG compound, immature female rats, uterine wet weight
Protocol: Method No. 19 Rat Uterotrophic/Antiuterotrophic Bioassay
The estrogenic and antiestrogenic properties of the compounds were determined in an immature rat uterotrophic assay (4 day) that (as described previously by L. J. Black and R. L. Goode, Life Sciences, 26, 1453(1980)). Immature Sprague-Dawley rats (female, 18 days old) were tested in groups of six. […] On day 4 the animals were sacrificed by CO2 asphyxiation and their uteri were removed and stripped of excess lipid, any fluid removed and the wet weight determined. A small section of one horn was submitted for histology and the remainder used to isolate total RNA in order to evaluate complement component 3 gene expression.

[5] = molecular target: T1, estrogen receptor; assay: 2X VIT ERE infection (luciferase) assay; assay type: cell-based; design: expressed in transfected cells; host or cells: Chinese Hamster Ovary cells (CHO), stably transfected; conditions: for Infection Luciferase Activity 1 uM + 17β estradiol: 1 uM compound + 1 nM 17β-estradiol (test for estrogen antagonism); for Infection Luciferase Activity 1 uM: 1 uM compound, percentage of activity as compared to 17β-estradiol
Protocol: Method No. 18 2X VIT ERE Infection Assay Cell Maintenance and Treatment
Chinese Hamster Ovary cells (CHO) which had been stably transfected with the human estrogen receptor were maintained in DMEM+10% fetal bovine serum (FBS). 48 h prior to treatment the growth medium was replaced with DMEM lacking phenol red +10% dextran coated charcoal stripped FBS (treatment medium). Cells were plated at a density of 5000 cells/well in 96-well plates containing 200 µL of medium/well.
Reporter DNA (Promega plasmid pGL2 containing two tandem copies of the vitellogenin ERE in front of the minimal thymidine kinase promoter driving the luciferase gene) was combined with the B-galactosidase expression plasmid pCH110 (Pharmacia) and carrier DNA (pTZ18U) in the following ratio:
20 uL of this mixture was added to each well of cells and remained on the cells for 16 h. […] Each treatment condition was performed on 8 wells (n=8) which were incubated for 24 h prior to the luciferase assay.
After removing the PBS, 25 uL of Promega lysis buffer was added to each well and allowed to stand at room temperature for 15 min, followed by 15 min at −80° C. and 15 min at 37° C. 20 uL of lysate was transferred to an opaque 96 well plate for luciferase activity evaluation and the remaining lysate (5 uL) was used for the B-galactosidase activity evaluation (normalize transfection). The luciferan substrate (Promega) was added in 100 uL aliquots to each well automatically by the luminometer and the light produced (relative light units) was read 10 seconds after addition.
To the remaining 5 uL of lysate 45 uL of PBS was added. Then 50 uL of Promega B-galactosidase 2× assay buffer was added, mixed well and incubated at 37° C. for 1 hour. A plate containing a standard curve (0.1 to 1.5 milliunits in triplicate) was set up for each experimental run. The plates were analyzed on a Molecular Devices spectrophotometric plate reader at 410 nm. The optical densities for the unknown were converted to milliunits of activity by mathematical extrapolation from the standard curve.
The luciferase data was generated as relative light units (RLUs) accumulated during a 10 second measurement and automatically transferred to a JMP (SAS Inc) file where background RLUs were subtracted. The B-galactosidase values were automatically imported into the file and these values were divided into the RLUs to normalize the data. The mean and standard deviations were determined from a n=8 for each treatment. […] These techniques are described by Tzukerman, M. T., Esty, A., Santiso-Mere, D., Danielian, P., Parker, M. G., Stein, R. B., Pike, J. W. and McDonnel, D. P. (1994).

## C[C@]12CC[C@@H]3c4ccc(O)cc4CC[C@H]3[C@@H]1CC[C@H]2O [17α-estradiol]
[1]
  EC50: 1.42 nM

## C[C@]12CC[C@@H]3c4ccc(O)cc4CC[C@H]3[C@@H]1CC[C@@H]2O [17β-estradiol]
[2]
  Cholesterol: 95.5 ± 3.9 mg/dL
[1]
  % Activation: 100%
  EC50: 0.03 nM

## Cc1c(-c2ccc(OC3CCCC3)cc2)n(Cc2ccc(OCCN3CCCCC3)cc2)c2ccc(O)cc12 [compound 122, 2-(4-Cyclopenyloxy-phenyl)-3-methyl-1-[4-(2-piperidin-1-yl-ethoxy)-benzyl]-1H-indol-5-ol]
[3]
  IC50: 80 nM
[4]
  Uterine wt mg 100 uG cmpd + 1 uG 17β-estradiol: 38.7 mg
  Uterine wt mg 100 uG cmpd: 46.7 mg
[5]
  Infection Luciferase Activity 1 uM + 17β estradiol: 5%
  Infection Luciferase Activity 1 uM: 1%

## Cc1c(-c2ccc(O)cc2)n(Cc2ccc(OCCN3CCCCCC3)cc2)c2ccc(O)cc12 [Example No. 98, 1-[4-(2-Azepan-1-yl-ethoxy)-benzyl]-2-(4-hydroxy-phenyl)-3-methyl-1H-indol-5-ol]
[1]
  % Activation with 1 nM 17β-estradiol: activity (1% with 1 nM 17β-estradiol)

## Cc1c(-c2ccccc2)n(Cc2ccc(OCCN3CCCCC3)cc2)c2ccccc12 [compound 85, 4-{3-Methyl-1-[4-(2-piperidin-1-yl-ethoxy)-benzyl]-1H-indole}]
[4]
  Uterine wt mg 100 uG cmpd + 1 uG 17β-estradiol: 92.4 mg
  Uterine wt mg 100 uG cmpd: 41.1 mg
[5]
  Infection Luciferase Activity 1 uM + 17β estradiol: 43%
  Infection Luciferase Activity 1 uM: −2%

## Cc1c(-c2ccc(O)cc2)n(Cc2ccc(OCCN(C)C)cc2)c2ccc(O)cc12 [Example No. 100, 2-(4-Hydroxy-phenyl)-3-methyl-1-[4-(2-dimethyl-1-yl-ethoxy)-benzyl]-1H-indol-5-ol]
[4]
  Uterine wt mg 100 uG cmpd + 1 uG 17β-estradiol: 68.7 mg
  Uterine wt mg 100 uG cmpd: 59.9 mg

## CC/C(=C(\c1ccccc1)c1ccc(OCCN(C)C)cc1)c1ccccc1 [tamoxifen]
[4]
  Uterine wt mg 100 uG cmpd: 71.4 mg
[1]
  % Activation with 1 nM 17β-estradiol: activity (45% with 1 nM 17β-estradiol)
  % Activation: 0%

## CCN(CC)CCOc1ccc(Cn2c(-c3ccc(O)cc3)c(C)c3cc(O)ccc32)cc1 [compound 101, 2-(4-Hydroxy-phenyl)-3-methyl-1-[4-(2-diethyl-1-yl-ethoxy)-benzyl]-1H-indol-5-ol]
[4]
  Uterine wt mg 100 uG cmpd + 1 uG 17β-estradiol: 71.0 mg
  Uterine wt mg 100 uG cmpd: 65.1 mg

## O=C(c1ccc(OCCN2CCCCC2)cc1)c1c(-c2ccc(O)cc2)sc2cc(O)ccc12 [raloxifene]
[1]
  % Activation with 1 nM 17β-estradiol: activity (5% with 1 nM 17β-estradiol)
